# Laboratory results as given in article PMC9683047, “Design, synthesis and biological evaluation of 4-aminoquinoline derivatives as receptor-interacting protein kinase 2 (RIPK2) inhibitors” (Journal of Enzyme Inhibition and Medicinal Chemistry, 2022).
# Experiments:
# [1] = molecular target: T1, RIPK1 (Homo sapiens, UniProt Q13546); test: RIPK1 inhibition rate at 1 µM; assay type: biochemical
# T1 sequence (Q13546 1-671): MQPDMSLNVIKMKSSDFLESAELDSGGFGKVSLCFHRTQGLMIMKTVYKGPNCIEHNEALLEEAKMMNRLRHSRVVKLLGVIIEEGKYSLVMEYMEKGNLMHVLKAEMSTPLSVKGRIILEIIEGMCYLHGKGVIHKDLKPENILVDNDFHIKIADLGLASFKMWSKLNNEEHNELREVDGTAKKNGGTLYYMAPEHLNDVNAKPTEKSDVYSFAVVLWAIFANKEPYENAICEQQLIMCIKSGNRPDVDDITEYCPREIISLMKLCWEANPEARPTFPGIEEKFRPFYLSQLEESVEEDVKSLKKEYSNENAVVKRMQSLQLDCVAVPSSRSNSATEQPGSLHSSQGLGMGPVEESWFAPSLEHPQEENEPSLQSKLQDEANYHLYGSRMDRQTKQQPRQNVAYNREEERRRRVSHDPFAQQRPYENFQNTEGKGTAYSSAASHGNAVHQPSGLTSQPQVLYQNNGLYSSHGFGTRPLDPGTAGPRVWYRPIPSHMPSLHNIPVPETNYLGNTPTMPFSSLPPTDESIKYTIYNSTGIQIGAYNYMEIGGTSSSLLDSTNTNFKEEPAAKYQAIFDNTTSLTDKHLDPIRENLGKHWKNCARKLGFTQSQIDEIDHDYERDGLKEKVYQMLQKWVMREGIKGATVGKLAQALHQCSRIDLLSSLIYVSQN
# Method: Table 4. Selectivity, ClogP and LipE of compound 14, 15, 21, 32, 36. | column: RIPK1 IR@1µM (%)
# [2] = molecular target: T2, RIPK2 (Homo sapiens, UniProt O43353); test: Lipophilic ligand efficiency (LipE); settings: LipE = pIC50 − ClogP
# T2 construct: purchased Promega
# [3] = molecular target: T2, RIPK2; test: RIPK2 kinase inhibition assay (ADP-Glo); assay type: biochemical; settings: mean ± SD from two separate experiments
# Method: RIPK2 kinase activity was analysed using the ADP-Glo™ Assay Kit (RIPK2 Kinase Enzyme System, Promega, USA). Reactions were performed according to the instructions. Specific signal was calculated by subtracting values in the wells without protein and inhibitor from the values in the test wells.
# [4] = tested on: MDP-induced TNF-α secretion in Raw264.7; test: TNF-α secretion in MDP-induced Raw264.7 (ELISA); assay type: cell-based, mouse; settings: Raw264.7, compounds 1 h then L18-MDP 20 µg/mL 24 h, series concentration
# Method: Raw 264.7 was cultured in DMEM containing 10% (w/v) foetal bovine serum (FBS). Cell were seeded at a density of 1 × 10^5 cells/well in a 48 well plate overnight, then cells were treated with different concentrations of compounds for1h, following by stimulated with L18-MDP (20 µg/mL, Invivogen) for 24 h. The Cell supernatants were harvested for enzyme-linked immunosorbent assay (ELISA).
# TNFα commercial ELISA kits (DAKEWE) were used to detect TNFα in cell culture supernatants according to the manufacturer’s instructions. The concentration of cytokines was determined using multiwell spectrophotometer (SpetraMAX PLUS, Molecular Devices).
# [5] = molecular target: T3, AO oxidase (Homo sapiens, UniProt Q06278); test: AO oxidative metabolism in human liver cytosol; assay type: in vitro ADME; settings: human liver cytosol incubation; inhibitors raloxifene and menadione
# T3 construct: could undergo mono oxidative metabolism in the human liver cytosol incubation system; from tissue; host or cells: human liver cytosol
# Method: However, we have done experiment on AO oxidative metabolism of compound 14 and P5. Both compound 14 and P5 could undergo mono oxidative metabolism in the human liver cytosol incubation system.
# T2 sequence (O43353 whole entry): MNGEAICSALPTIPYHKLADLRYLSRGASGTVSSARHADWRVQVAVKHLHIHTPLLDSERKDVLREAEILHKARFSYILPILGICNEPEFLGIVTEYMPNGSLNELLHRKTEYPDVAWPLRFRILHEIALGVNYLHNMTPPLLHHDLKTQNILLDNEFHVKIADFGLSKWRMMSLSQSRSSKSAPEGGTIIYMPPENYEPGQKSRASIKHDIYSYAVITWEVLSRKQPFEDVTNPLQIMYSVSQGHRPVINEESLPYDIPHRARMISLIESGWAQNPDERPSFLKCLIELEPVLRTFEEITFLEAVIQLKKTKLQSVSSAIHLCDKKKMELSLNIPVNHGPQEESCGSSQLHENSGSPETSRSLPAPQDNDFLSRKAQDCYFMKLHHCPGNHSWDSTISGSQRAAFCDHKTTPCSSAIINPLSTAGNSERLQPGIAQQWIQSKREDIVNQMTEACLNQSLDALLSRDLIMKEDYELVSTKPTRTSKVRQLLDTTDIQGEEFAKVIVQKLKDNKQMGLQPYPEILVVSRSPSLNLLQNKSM
# T3 sequence (Q06278 whole entry): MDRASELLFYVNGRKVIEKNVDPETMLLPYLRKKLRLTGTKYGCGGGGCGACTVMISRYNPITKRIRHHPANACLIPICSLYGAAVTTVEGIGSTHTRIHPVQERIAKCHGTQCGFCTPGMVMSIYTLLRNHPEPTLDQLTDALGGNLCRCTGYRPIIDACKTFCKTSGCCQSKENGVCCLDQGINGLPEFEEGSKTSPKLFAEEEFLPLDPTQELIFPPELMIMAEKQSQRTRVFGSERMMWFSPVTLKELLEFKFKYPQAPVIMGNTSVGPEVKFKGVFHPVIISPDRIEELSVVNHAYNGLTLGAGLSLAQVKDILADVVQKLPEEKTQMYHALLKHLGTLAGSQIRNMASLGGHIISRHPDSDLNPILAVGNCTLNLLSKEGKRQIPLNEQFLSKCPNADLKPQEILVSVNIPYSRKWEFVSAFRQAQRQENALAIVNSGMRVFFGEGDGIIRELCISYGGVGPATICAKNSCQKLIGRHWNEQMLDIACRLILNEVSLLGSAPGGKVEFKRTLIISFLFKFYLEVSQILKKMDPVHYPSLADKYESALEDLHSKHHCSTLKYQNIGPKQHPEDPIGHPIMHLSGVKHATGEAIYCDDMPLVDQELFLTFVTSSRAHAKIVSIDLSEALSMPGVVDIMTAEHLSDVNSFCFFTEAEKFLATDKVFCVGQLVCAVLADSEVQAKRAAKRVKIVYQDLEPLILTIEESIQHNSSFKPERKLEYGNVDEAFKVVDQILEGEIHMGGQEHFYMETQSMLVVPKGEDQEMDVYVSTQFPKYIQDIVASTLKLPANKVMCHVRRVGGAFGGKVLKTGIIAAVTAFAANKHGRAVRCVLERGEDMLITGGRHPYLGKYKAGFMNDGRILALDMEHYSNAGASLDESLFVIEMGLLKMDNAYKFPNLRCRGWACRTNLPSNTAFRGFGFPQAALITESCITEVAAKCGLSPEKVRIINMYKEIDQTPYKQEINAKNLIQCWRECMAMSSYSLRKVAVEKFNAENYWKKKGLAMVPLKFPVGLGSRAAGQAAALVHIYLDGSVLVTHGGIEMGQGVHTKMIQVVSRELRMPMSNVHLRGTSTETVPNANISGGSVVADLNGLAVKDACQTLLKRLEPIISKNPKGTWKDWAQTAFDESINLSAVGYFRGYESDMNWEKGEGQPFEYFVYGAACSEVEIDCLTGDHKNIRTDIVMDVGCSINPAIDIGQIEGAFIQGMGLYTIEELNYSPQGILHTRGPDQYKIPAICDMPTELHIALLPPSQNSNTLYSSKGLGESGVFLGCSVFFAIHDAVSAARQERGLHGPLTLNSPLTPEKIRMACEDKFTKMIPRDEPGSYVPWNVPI
structure (smiles),measurement,setting,value
"c1cncc(-c2ccc3nccc(Nc4ccc5scnc5c4)c3c2)c1 [Compound 15, N-(6-(pyridin-3-yl)quinolin-4-yl)benzo[d]thiazol-5-amine]",RIPK1 IR@1µM (%),[1],<1%
same,LipE,[2],4.27
same,IC50,[3],6 ± 1.5 nM
same,inhibition of MDP-induced TNF-α secretion,[4],almost no inhibition
"CC(C)(C)S(=O)(=O)c1cc2c(Nc3ccc4scnc4c3)ncnc2cc1OCCO [Compound P5, reference compound]",LipE,[2],6.70
same,IC50,[3],2.6 ± 1.2 nM
same,AO oxidase substrate,[5],metabolic substrates of AO oxidase
